Patent US20080031811A1, “Method For Preparing Radioactive Film” (DONG WHA PHARM. IND. CO., LTD., priority 2004, published 2008)

Test: Thermal characteristic of film (TGA)
Format: physicochemical
Settings: measured at 500° C.
Method: The behavior of thermal change according to temperature change in holmium nitrate, polyurethane film, and holmium-165 polyurethane film (Example 13) is measured by using a thermogravimetric analyzer (TGA, […], Germany) and a differential scanning calorimetry (DSC, […], Germany). TGA analyzes the changes in the mass of a substance according to temperature by a thermal decomposition curve. The analysis conditions of TGA are as follows; 30˜600° C. of temperature, 5.0 mg of a substance, 10° C./min of heating rate. Calorie change of a substance according to temperature change is measured by DSC. DSC is measured at the same condition as TGA and the sample is sealed in an aluminum pan under nitrogen atmosphere.

O=[N+]([O-])[O-].O=[N+]([O-])[O-].O=[N+]([O-])[O-].[Ho+3] [holmium nitrate, ^165Ho(No3)3.5H2O]
Residual weight % after decomposition: 37%
